Measured values from patent US20040224958A1, “Pyridopyrimidinone derivatives for treatment of neurodegenerative disease” (priority 2000, published 2004).
Like-named read-outs stand apart in the source and are kept apart here.

Tests used:
cdk4/D = cdk4/D (Homo sapiens, UniProt P11802); test: Cyclin-Dependent Kinase 4 (cdk4) Assay; assay type: biochemical; conditions: read-out: cdk4/D IC50
Cdk5/p25 = Cdk5/p25 (Homo sapiens, UniProt Q00535); test: Cyclin-Dependent Kinase 5 High Throughput Screening (cdk5-HTS) Assay; assay type: biochemical; conditions: high throughput screen
Procedure, shortened: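 IC50 determined from 33P incorporation into GST-RbCOOH captured on glutathione plates and read by scintillation counting. Reaction: 1.0 μg/mL Cdk5/p25, 20 μM [γ33P]ATP, pH 7.4 Tris buffer with MgCl2 and DTT, 30 min at room temperature, stopped with EDTA.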

cdk2/cyclinE = cdk2/cyclinE (Homo sapiens, UniProt P24941); test: Cyclin-Dependent Kinase Assay cdk2/cyclinE
cdk2/cyclinA = cdk2/cyclinA (Homo sapiens, UniProt P24941); test: Cyclin-Dependent Kinase Assay cdk2/cyclinA
cdc2/cyclinB = cdc2/cyclinB (Homo sapiens, UniProt P06493); test: Cyclin-Dependent Kinase Assay cdc2/cyclinB
cdc2/cyclinB, sequence (P06493 whole entry): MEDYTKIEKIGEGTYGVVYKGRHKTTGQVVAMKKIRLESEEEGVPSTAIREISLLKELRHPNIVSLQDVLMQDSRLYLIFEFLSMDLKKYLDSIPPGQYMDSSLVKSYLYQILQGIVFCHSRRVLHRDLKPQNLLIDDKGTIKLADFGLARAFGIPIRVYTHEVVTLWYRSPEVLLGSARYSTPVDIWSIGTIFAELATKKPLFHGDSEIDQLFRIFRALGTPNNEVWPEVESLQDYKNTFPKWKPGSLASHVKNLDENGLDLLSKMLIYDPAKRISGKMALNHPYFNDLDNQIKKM
cdc2/cyclinB, sequence (P14635 whole entry, further chain): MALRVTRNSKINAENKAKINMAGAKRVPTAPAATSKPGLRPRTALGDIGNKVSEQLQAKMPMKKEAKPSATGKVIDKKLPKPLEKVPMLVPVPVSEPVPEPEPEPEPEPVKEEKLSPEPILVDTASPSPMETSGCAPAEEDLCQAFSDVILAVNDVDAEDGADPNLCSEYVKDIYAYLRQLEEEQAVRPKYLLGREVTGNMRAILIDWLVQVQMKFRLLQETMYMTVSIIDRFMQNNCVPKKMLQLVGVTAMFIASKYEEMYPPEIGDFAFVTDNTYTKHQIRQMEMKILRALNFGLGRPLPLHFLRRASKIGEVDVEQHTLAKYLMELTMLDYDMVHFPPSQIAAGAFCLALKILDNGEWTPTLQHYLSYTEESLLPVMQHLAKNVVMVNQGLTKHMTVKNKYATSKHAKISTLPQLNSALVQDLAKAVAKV

cdk4/D, sequence (P11802 whole entry): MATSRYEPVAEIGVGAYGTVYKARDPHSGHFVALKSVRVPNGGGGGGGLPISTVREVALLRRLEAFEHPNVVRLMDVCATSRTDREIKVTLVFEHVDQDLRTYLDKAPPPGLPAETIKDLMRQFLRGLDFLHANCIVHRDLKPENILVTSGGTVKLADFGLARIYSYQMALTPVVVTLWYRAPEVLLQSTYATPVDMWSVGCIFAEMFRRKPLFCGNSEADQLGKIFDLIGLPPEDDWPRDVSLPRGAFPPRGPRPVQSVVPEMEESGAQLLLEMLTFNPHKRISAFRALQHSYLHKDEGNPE
cdk4/D, sequence (P24385 whole entry, further chain): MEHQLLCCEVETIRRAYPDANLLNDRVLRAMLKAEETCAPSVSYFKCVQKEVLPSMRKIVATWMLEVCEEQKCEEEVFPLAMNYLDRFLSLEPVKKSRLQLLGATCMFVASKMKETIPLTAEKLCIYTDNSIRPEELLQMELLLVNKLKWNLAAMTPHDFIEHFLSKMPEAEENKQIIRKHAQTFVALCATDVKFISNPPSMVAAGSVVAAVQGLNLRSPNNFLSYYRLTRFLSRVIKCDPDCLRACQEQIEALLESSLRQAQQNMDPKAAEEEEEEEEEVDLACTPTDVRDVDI

Compound | melting point [°C] | IC50 (cdk4/D) [nM] | IC50 (Cdk5/p25) [nM] | IC50 (cdk2/cyclinE; cdk2/E IC50) [nM] | IC50 (cdk2/cyclinA; cdk2/A IC50) [nM] | IC50 (cdc2/cyclinB) [nM] | IC50 (cdk2/cyclinE; read-out: cdk2/E IC50) [nM] | IC50 (cdk2/cyclinA; read-out: cdk2/A IC50) [nM] | IC50 (cdc2/cyclinB; read-out: cdk1/B IC50) [nM]
CCn1c(=O)ccc2cnc(NC(C)(C)C)nc21 [Example 46, 2-tert-Butylamino-8-ethyl-8H-pyrido[2,3-d]pyrimidin-7-one] | 103 to 104 | – | – | – | – | – | – | – | –
CC(C)n1c(=O)ccc2cnc(Nc3ccc(O)c(Cl)c3)nc21 [Example 413, 2-(3-Chloro-4-hydroxy-phenylamino)-8-isopropyl-8H-pyrido[2,3-d]pyrimidin-7-one] | – | 180 | 43.5 | 52.3 | 138 | 68 | – | – | –
CCCCn1c(=O)ccc2cnc(Nc3ccc(F)cc3F)nc21 [Example 368, 8-Butyl-2-(2,4-difluoro-phenylamino)-8H-pyrido[2,3-d]pyrimidin-7-one] | – | 3010 | 723 | 836 | 3060 | 1360 | – | – | –
2-(3-Hydroxy-4-methoxy-phenylamino)-8-propyl-8H-pyrido[2,3-d]pyrimidin-7-one [Example 296] | – | 540 | 120 | – | – | – | 240 | 960 | 440
Cc1ccc(Nc2ncc3ccc(=O)n(C(C)C)c3n2)cc1I [Example 427, 2-(3-Iodo-4-methyl-phenylamino)-8-isopropyl-8H-pyrido[2,3-d]pyrimidin-7-one] | – | 140 | 21 | 160 | 590 | 160 | – | – | –
CCCn1c(=O)ccc2cnc(Nc3ccc(C(F)(F)F)cc3)nc21 [Example 361, 8-Propyl-2-(4-trifluoromethyl-phenylamino)-8H-pyrido[2,3-d]pyrimidin-7-one] | – | 350 | 150 | 440 | 310 | 180 | – | – | –
CCC(CC)n1c(=O)ccc2cnc(Nc3ccc(Cl)c(C)c3)nc21 [Example 500, 2-(4-Chloro-3-methyl-phenylamino)-8-(1-ethyl-propyl)-8H-pyrido[2,3-d]pyrimidin-7-one] | – | 98 | 16 | 74 | 340 | 110 | – | – | –
8-(1-Ethyl-propyl)-2-(3-trifluoromethyl-phenylamino)-8H-pyrido[2,3-d]pyrimidin-7-one [Example 485] | – | 232 | 647 | – | – | – | 131 | 600 | 241
Cc1cc(Nc2ncc3ccc(=O)n(C4CCCC4)c3n2)cc(C)c1O [Example 559, 8-Cyclopentyl-2-(4-hydroxy-3,5-dimethyl-phenylamino)-8H-pyrido[2,3-d]pyrimidin-7-one] | – | 270 | 94 | 91 | 87 | 82 | – | – | –
CCCn1c(=O)ccc2cnc(Nc3ccc(C)c(F)c3)nc21 [Example 376, 2-(3-Fluoro-4-methyl-phenylamino)-8-propyl-8H-pyrido[2,3-d]pyrimidin-7-one] | – | 380 | 131 | 400 | 1180 | 275 | – | – | –
Cc1ccc(Nc2ncc3ccc(=O)n(C(C)C)c3n2)cc1C [Example 434, 2-(3,4-Dimethyl-phenylamino)-8-isopropyl-8H-pyrido[2,3-d]pyrimidin-7-one] | – | 350 | 54 | 520 | 400 | 470 | – | – | –
Cc1cc(Nc2ncc3ccc(=O)n(C(C)C)c3n2)cc(C)c1O [Example 441, 2-(4-Hydroxy-3,5-dimethyl-phenylamino)-8-isopropyl-8H-pyrido[2,3-d]pyrimidin-7-one] | – | 890 | 150 | 470 | 290 | 290 | – | – | –
CCCn1c(=O)ccc2cnc(Nc3ccc(F)c(C(F)(F)F)c3)nc21 [Example 335, 2-(4-Fluoro-3-trifluoromethyl-phenylamino)-8-propyl-8H-pyrido[2,3-d]pyrimidin-7-one] | – | 1600 | 340 | 160 | 1100 | 250 | – | – | –
O=c1ccc2cnc(Nc3ccc4[nH]ccc4c3)nc2n1CC(F)(F)F [Example 593, 2-(1H-Indol-5-ylamino)-8-(2,2,2-trifluoro-ethyl)-8H-pyrido[2,3-d]pyrimidin-7-one] | – | 905 | 695 | 1370 | 2700 | 960 | – | – | –
CCC(C)n1c(=O)ccc2cnc(Nc3cc(F)cc(F)c3)nc21 (stereo not drawn) [Example 472, 8-sec-Butyl-2-(3,5-difluoro-phenylamino)-8H-pyrido[2,3-d]pyrimidin-7-one] | – | 370 | 52 | 200 | 150 | 250 | – | – | –
CCC(CC)n1c(=O)ccc2cnc(Nc3ccc4c(c3)NC(=O)CS4)nc21 [Example 520, 8-(1-Ethyl-propyl)-2-(3-oxo-3,4-dihydro-2H-1,4-benzothiazin-6ylamino)-8H-pyrido[2,3-d]pyrimidin-7-one] | – | 120 | 9.8 | 41 | 86 | 51 | – | – | –

More lines, now with the values ahead:

melting point [°C] | IC50 (cdk4/D) [nM] | IC50 (Cdk5/p25) [nM] | IC50 (cdk2/cyclinE; cdk2/E IC50) [nM] | IC50 (cdk2/cyclinA; cdk2/A IC50) [nM] | IC50 (cdc2/cyclinB) [nM] | IC50 (cdk2/cyclinE; read-out: cdk2/E IC50) [nM] | IC50 (cdk2/cyclinA; read-out: cdk2/A IC50) [nM] | IC50 (cdc2/cyclinB; read-out: cdk1/B IC50) [nM] | Compound
– | 490 | 290 | 240 | 1100 | 1100 | – | – | – | CCCCn1c(=O)ccc2cnc(Nc3cc([N+](=O)[O-])ccc3F)nc21 [Example 415, 8-Butyl-2-(2-fluoro-5-nitro-phenylamino)-8H-pyrido[2,3-d]pyrimidin-7-one]
– | 1140 | 917 | 1280 | 610 | 808 | – | – | – | CCCCn1c(=O)ccc2cnc(Nc3ccc(N(C)C(C)=O)cc3)nc21 [Example 370, N-[4-(8-Butyl-7-oxo-7,8-dihydro-pyrido[2,3-d]pyrimidin-2-ylamino)-phenyl]-N-methyl-acetamide]
– | 230 | 250 | 400 | 925 | 540 | – | – | – | CCn1c(=O)ccc2cnc(Nc3ccc4[nH]ccc4c3)nc21 [Example 621, 8-Ethyl-2-(1H-indol-5-ylamino)-8H-pyrido[2,3-d]pyrimidin-7-one]
– | 810 | 81 | 147 | 365 | 350 | – | – | – | CCn1c(=O)ccc2cnc(Nc3ccc4[nH]nnc4c3)nc21 [Example 287, 2-(1H-Benzotriazol-5-ylamino)-8-ethyl-8H-pyrido[2,3-d]pyrimidin-7-one]
– | 170 | 38 | 56 | 480 | 120 | – | – | – | CCCCn1c(=O)ccc2cnc(Nc3ccc(C)c(Cl)c3)nc21 [Example 400, 8-Butyl-2-(3-chloro-4-methyl-phenylamino)-8H-pyrido[2,3-d]pyrimidin-7-one]
– | 3040 | 309 | 334 | 1480 | 360 | – | – | – | CCCn1c(=O)ccc2cnc(Nc3cccc(C(F)(F)F)c3)nc21 [Example 313, 8-Propyl-2-(3-trifluoromethyl-phenylamino)-8H-pyrido[2,3-d]pyrimidin-7-one]
– | 492 | 56.6 | 62.5 | 296 | 92.4 | – | – | – | CCCn1c(=O)ccc2cnc(Nc3cccc(I)c3)nc21 [Example 316, 2-(3-Iodo-phenylamino)-8-propyl-8H-pyrido[2,3-d]pyrimidin-7-one]
